Data published in patent US4683291A, “Platelet binding inhibitors” (Scripps Clinic and Research Foundation, priority 1985, dated 1987).
Non-standard residues stand in square brackets, D forms with d. Residues, ends and D or L forms follow the SMILES beside them. No end group written: not given here.

Target: T1, platelet receptor, the GPIIb/IIIa complex (Homo sapiens, UniProt P05106+P08514)
T1 construct: Platelets were isolated from normal platelet-rich plasma and washed by the albumin density gradient technique; endogenous in cells; host or cells: washed platelets from normal platelet-rich plasma, thrombin-stimulated
Test: not given
Settings: increasing fibrinogen concentrations; earlier findings; cited from earlier work

**Q.** With “Gly-Pro-Arg-Pro (GPRP; printed: Gly-Pro-Arg-Pro)” as the molecule, how does the “inhibitory effect on increasing the fibrinogen concentration” value read?
**A.** Its value is “increase with increasing fibrinogen concentrations”.

Target: T1, platelet receptor, the GPIIb/IIIa complex
Test: Inhibition of 125I-fibrinogen binding to thrombin-stimulated washed platelets
Settings: fibrinogen-platelet binding; read-out: IC50
Method: Peptides were stored in the lyophilized state and dissolved in distilled water immediately before use. One-tenth volume of 10x modified Tyrode buffer was added before mixing with the platelet suspension. Platelets were isolated from normal platelet-rich plasma and washed by the albumin density gradient technique. Fibrinogen was purified following precipitation with glycine or polyethylene glycol 1000, and radiolabeled with ^125 I using Iodogen (Pierce). […] In each experimental mixture, platelets in modified Tyrode buffer were stimulated with human alpha-thrombin at 22°-25° C. for 10 minutes (3.125×10^11 platelets/L and 0.25 NIHU/ml of thrombin). Hirudin (Sigma) was then added at a 25-fold excess (V/V) for 5 minutes before the addition of ^125 I-fibrinogen and the peptide was then tested. After these additions, the final platelet count in the mixture was 1×10^11 /L, and fibrinogen was 0.176 micromolar. Separation of bound from free ligand was achieved by centrifuging 50 microliters of the mixture through 200 microliters of 20% sucrose at 12,000 g for 4 minutes. The platelet pellet was separated from the rest of the mixture, and the platelet-bound radioactivity was then determined. Non-specific binding was measured in mixtures containing a 75-fold excess of unlabeled fibrinogen. […] Each peptide was tested at six different concentrations, and the IC50 was derived from a plot of residual fibrinogen binding versus log of peptide concentration.

**Q.** Which IC50 does the source give for “KRKRKRKRRGDV [Lys--Arg--Lys--Arg--Lys--Arg--Lys--Arg--Arg--Gly--Asp--Val]” here?
**A.** Its IC50 is 0.4 µM.

Same assay, conditions: published peptides; read-out: IC50

**Q.** Which IC50 does the source give for HHLGGAKQAGDV [reference compound] here?
**A.** The IC50 was 48 to 83 µM.

Same assay, conditions: read-out: Typical IC50 (micromolar) IC50

**Q.** For “HHLGGRKQRGDV [His--His--Leu--Gly--Gly--Arg--Lys--Gln--Arg--Gly--Asp--Val]”, which IC50 is on record?
**A.** Its IC50 is 6.3 µM.

**Q.** Which IC50 does the source give for “HHKKKKKKRGDV [His--His--Lys--Lys--Lys--Lys--Lys--Lys--Arg--Gly--Asp--Val]” here?
**A.** The IC50 was 1.6 µM.

**Q.** For “KKKKKKKKRGDV [Lys--Lys--Lys--Lys--Lys--Lys--Lys--Lys--Arg--Gly--Asp--Val]”, which IC50 is on record?
**A.** The IC50 was 4.1 µM.

**Q.** With “HHKRKRKQRGDS [His--His--Lys--Arg--Lys--Arg--Lys--Gln--Arg--Gly--Asp--Ser]” as the molecule, how does the IC50 read?
**A.** Its IC50 is 6.2 µM.

**Q.** Which IC50 does the source give for “HHLGGKKQRGDV [His--His--Leu--Gly--Gly--Lys--Lys--Gln--Arg--Gly--Asp--Val]” here?
**A.** The IC50 was 13.2 µM.

**Q.** For “RRRRRRRRRGDV [Arg--Arg--Arg--Arg--Arg--Arg--Arg--Arg--Arg--Gly--Asp--Val]”, which IC50 is on record?
**A.** Its IC50 is 0.2 µM.

**Q.** For “HHLRGKKQRGDV [His--His--Leu--Arg--Gly--Lys--Lys--Gln--Arg--Gly--Asp--Val]”, which IC50 is on record?
**A.** Its IC50 is 11.2 µM.

**Q.** For “HHLRGRKQRGDV [His--His--Leu--Arg-- Gly--Arg--Lys--Gln--Arg--Gly--Asp--Val]”, which IC50 is on record?
**A.** Its IC50 is 6.2 µM.

**Q.** Which IC50 does the source give for `CC(C)[C@H](NC(=O)[C@H](CC(=O)O)NC(=O)CNC(=O)[C@H](CCCNC(=N)N)NC(=O)[C@H](CCC(N)=O)NC(=O)[C@H](CCCCN)NC(=O)[C@H](CCCNC(=N)N)NC(=O)CNC(=O)CNC(=O)[C@@H](C)NC(=O)[C@H](Cc1c[nH]cn1)NC(=O)[C@@H](N)Cc1c[nH]cn1)C(=O)O` [His--His--D-Ala--Gly--Gly--Arg--Lys--Gln--Arg--Gly--Asp--Val] (H-HH[dA]GGRKQRGDV-OH) here?
**A.** Its IC50 is 2.8 µM.

**Q.** For “HHRRRRRRRGDV [His--His--Arg--Arg--Arg--Arg--Arg--Arg--Arg--Gly--Asp--Val]”, which IC50 is on record?
**A.** The IC50 was 1.3 µM.

**Q.** For “HHLRKRKQRGDV [His--His--Leu--Arg--Lys--Arg--Lys--Gln--Arg--Gly--Asp--Val]”, which IC50 is on record?
**A.** Its IC50 is 4.4 µM.

**Q.** For “HHLGGAKQRGDV [His--His--Leu--Gly--Gly--Ala--Lys--Gln--Arg--Gly--Asp--Val]”, which IC50 is on record?
**A.** The IC50 was 14.5 µM.

**Q.** For “HHKRKRKRRGDS [His--His--Lys--Arg--Lys--Arg--Lys--Arg--Arg--Gly--Asp--Ser]”, which IC50 is on record?
**A.** Its IC50 is 3.1 µM.

**Q.** For “HHLGRRKQRGDV [His--His--Leu--Gly--Arg--Arg--Lys--Gln--Arg--Gly--Asp--Val]”, which IC50 is on record?
**A.** The IC50 was 5.4 µM.

**Q.** For “HHKRKRKQRGDV [His--His--Lys--Arg--Lys--Arg--Lys--Gln--Arg--Gly--Asp--Val]”, which IC50 is on record?
**A.** Its IC50 is 3.3 µM.

**Q.** Which IC50 does the source give for `CC(C)[C@H](NC(=O)[C@H](CC(=O)O)NC(=O)CNC(=O)[C@H](CCCNC(=N)N)NC(=O)[C@H](CCC(N)=O)NC(=O)[C@H](CCCCN)NC(=O)[C@H](CCCNC(=N)N)NC(=O)[C@H](CCCCN)NC(=O)[C@H](CCCNC(=N)N)NC(=O)[C@@H](C)NC(=O)[C@H](Cc1c[nH]cn1)NC(=O)[C@@H](N)Cc1c[nH]cn1)C(=O)O` [His--His--D-Ala--Arg--Lys--Arg--Lys--Gln--Arg--Gly--Asp--Val] (H-HH[dA]RKRKQRGDV-OH) here?
**A.** The IC50 was 2.2 µM.
